This note sets out measurements from patent US20100184807A1, “Methods to inhibit tumor cell growth by using proton pump inhibitors” (Bio-Quant, Inc., priority 2008, published 2010).

Each structure is given as a SMILES string.

This test has as its system OVCAR5 (ovarian cancer). Briefly: MTT tumor cell growth assay. The class given is cell-based. Here is the method: In one study, adherent cells were plated approximately 16-24 hours before the day of the experiment in 180 μl growth media. On the day of the experiment, the plated adherent cells were analyzed and counted and suspension cells were plated in 180 μl growth media. 10× lansoprazole compounds and vehicle was prepared. The 10× lansoprazole compounds were prepared by diluting lansoprazole to final concentrations of 100 μM, 30 μM, 10 μM, 3 μM, and 1 μM. A vehicle was prepared by preparing a solution of PBS, equivalent to the volume used for 10 μM lansoprazole wherein the 1× solution constitutes ˜0.06% PBS. 10 μl of the various 10× lansoprazole solutions and the vehicle were added to the cells. The cells were incubated at 37° C., 5% CO2 for 48 hours. The media was then aspirated. The cell suspension was then spun at 1500 RPM for 10 minutes. The media was slowly removed. 200 μl of MTT solution was added to each well with a concentration of 0.863 mg/ml MTT in the growth media. The cells were incubated at 37° C., 5% CO2 for 4 hours and the medium is then aspirated. The plate containing the cell suspension was then spun at 1500 RPM for 10 minutes. The media was slowly removed using a multichannel pipettor. 100 μl of DMSO was then added to each well. The cells were incubated at 37° C., 5% CO2 for 5 minutes and the absorbance was obtained at 560 nm using a Dynex Opsys MR plate reader. The cells used for this procedure were the following cell lines: IGROV1 (ovarian cancer); OVCAR 8 (ovarian cancer); ES-2 (ovarian cancer); CAOV3 (ovarian cancer); OVCAR5 (ovarian cancer); SUDHL4 (lymphoma); RPMI8226 (myeloma); RPMI6666 (Hodgkin's lymphoma); NC37 (lymphoma); GDM-1 (leukemia); MC/CAR (prostate cancer); DU-145 (prostate cancer), J45-01 (leukemia), MOLT3 (leukemia), HUT78, J-gamma-1 (leukemia), MCF7 […], COL0205 (colon cancer), HL60 CLONE 15 (leukemia), T47D (breast cancer), P116 (intestinal cancer), KU812 (leukemia), SW620 (colon cancer), MK92-M1 (lymphoma), MV-4-11 (leukemia), HS578T (breast cancer), HT29 (colon cancer), HCT 116 (colon cancer), CAKI-1 (kidney cancer), A549 (lung cancer), H460 (lung cancer), A3 (colon cancer), MDA-MB231 […], MALME 3M (melanoma), RXF393 (kidney cancer), RS4.11 (leukemia), PC3 (prostate cancer), OVCAR3 (ovarian cancer), MDA-MB435 (melanoma), HUT102 (lymphoma), HL60 (leukemia), CCRF-CEM (leukemia), HUT78 (lymphoma), 786-O (kidney cancer), ACHN (kidney cancer), A498 (kidney cancer), H226 (lung cancer), H522 (lung cancer), HOP92 (lung cancer), SNB 19 (brain cancer), OVCAR4 (ovarian cancer), H9 (lymphoma), UO-31 (kidney cancer), HH (lymphoma), DAUDI (leukemia), LOXIMVI (melanoma), NAMALWA (lymphoma), EKVX (lung cancer), DOHH2 (lymphoma), SNB75 (brain cancer), SKMEL28 (melanoma), SKMEL5 (melanoma), SKMEL2 (melanoma), M14 (melanoma), UACC 257 (melanoma), H332M (lung cancer), KM12 (colon cancer), HCC2998 (colon cancer), G401 (kidney cancer), RS1184 (lymphoma), MC116 (leukemia), MOLT4 (leukemia), JM1 (liver cancer), HOP-62 (lung cancer), HCT-15 (colon cancer), SF-539 (brain cancer), SF295 (brain cancer), ST486 (lymphoma), U251 (brain cancer), and UACC-62 (melanoma).
Experiments, as described in Example I were conducted with lansoprazole, omeprazole and SCH 28080 at concentrations of 1 μM, 10 μM, and 100 μM. FIGS. 3A-3K show the experimental results when tumor cells from the following cell lines were treated with lansoprazole, omeprazole, and SCH 28080: IGROV1 (FIG. 3A), OVCAR8 (FIG. 3B), ES-2 (FIG. 3C), CAOV3 (FIG. 3D), OVCAR5 (FIG. 3E), SUDHL4 (FIG. 3F), RPMI8226 (FIG. 3G), RPMI6666 (FIG. 3H), NC37 (FIG. 3I), GDM-1 (FIG. 3J), and MC/CAR (FIG. 3K).

As for `Cc1c(OCC(F)(F)F)ccnc1C[S+]([O-])c1nc2ccccc2[nH]1` (centres unmarked) [lansoprazole], the “reducing tumor cell growth” value (OVCAR5 (FIG. 3E), 100 μM) is given as “effective in reducing tumor cell growth”. Also, the “tumor cell growth reduction” value (OVCAR5 cells, lansoprazole 1-100 μM, 48 hours, MTT) was “significant tumor cell growth reduction”.
